Test results: patent US8084645B2, “4-phenylamino-benzaldoxime derivatives and uses thereof as mitogen-activated protein kinase kinase (MEK) inhibitors” (Chugai Seiyaku Kabushiki Kaisha, priority 2003, dated 2011)
Converted amounts (≈) assume the structure as drawn.

Tests used:
[1] = tested on: Human colon cancer cell line HT-29; assay: Determination of the activity of inhibiting cell proliferation (Cell Counting Kit-8); format: cell-based; conditions: HT-29, 96 h, HT29, 2,000 cells/well, incubated four days, read-out: Cell proliferation inhibitory activity (HT29) IC50
Method: Human colon cancer cell line HT-29, obtained from American Type Culture Collection (VA, USA), and human non-small cell lung cancer cell line QG56, obtained from Immuno-Biological Laboratories Co., Ltd., were plated at 2,000 cells/well in a 96-well culture plate, and incubated for four days after addition of a MEK inhibitor of a given concentration.

[2] = Determination of stability against human liver microsomes; format: in vitro ADME; conditions: human liver microsomes 1 mg protein/mL, 2 mM NADPH, pH 7.4, 37 C; read-out: Stability against human liver microsome NADPH+ T1/2
Method: (§1) The enzyme reaction was quenched with three volumes of acetonitrile, and the reaction mixture was centrifuged at 1,500 rpm for ten minutes to provide a supernatant as a sample to be measured. Stability against human liver microsomes was measured using HPLC/MS to determine the compounds in the sample.

[3] = Determination of water solubility (equilibrium stirring method); format: physicochemical; conditions: 50 mM phosphate buffer pH 6.5, room temperature (20 C); for solubility at 2 h: aqueous buffer, thermodynamic from solid, read-out: Water solubility (LySA PH 6.5)
Method: The vessels were sealed, and the contents were sonicated at room temperature (20° C.) for ten minutes, and then stirred with a stirrer for two hours. After reaching solution equilibrium, the solution was separated with a membrane filter, and the solute concentration was determined using HPLC.

[4] = target: MEK (Homo sapiens, UniProt Q02750); assay: Determination of MEK inhibitory activities (Raf-1 kinase cascade assay, MBP phosphorylation, 33P-ATP)
From the text: The radioisotope used was [γ^33P]-ATP (Amersham Biosciences, K.K.).

[5] = Determination of stability against mouse liver microsomes; format: in vitro ADME; conditions: mouse liver microsomes 1 mg protein/mL, 2 mM NADPH, pH 7.4, 37 C; read-out: Stability against mouse liver microsome NADPH+ T1/2
Method: as §1, with “mouse” for “human”

Sequence of MEK (Q02750 whole entry): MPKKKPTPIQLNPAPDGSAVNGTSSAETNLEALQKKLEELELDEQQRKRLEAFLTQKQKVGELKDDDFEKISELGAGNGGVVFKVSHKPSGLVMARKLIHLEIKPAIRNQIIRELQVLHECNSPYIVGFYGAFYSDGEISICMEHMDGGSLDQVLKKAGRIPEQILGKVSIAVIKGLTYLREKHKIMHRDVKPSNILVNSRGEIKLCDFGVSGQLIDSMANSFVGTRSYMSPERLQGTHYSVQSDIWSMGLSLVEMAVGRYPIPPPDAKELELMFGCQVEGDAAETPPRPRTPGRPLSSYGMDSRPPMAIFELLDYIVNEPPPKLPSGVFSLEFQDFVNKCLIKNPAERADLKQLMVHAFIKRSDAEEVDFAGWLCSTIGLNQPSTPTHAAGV

SMILES | IC50 [1] [nM] | half-life [2] [h] | solubility at 2 h [3] [µM] | IC50 [4] [nM] | half-life [5] [h] | Water solubility (LySA PH 6.5) [3] [µM]
O=C(CO/N=C/c1cc(C(=O)NOCCO)c(Nc2ccc(I)cc2F)c(F)c1F)NCCO [Compound 45, (E)-3,4-difluoro-2-(2-fluoro-4-iodo-phenylamino)-N-(2-hydroxy-ethoxy)-5-{[(2-hydroxyethylcarbamoyl)-methoxyimino]-methyl}-benzamide] | 196 | > 6 | 73 (≈ 43.5 µg/mL) | 267 | 2.15 | 
O=C(NOCCO)c1cc(/C=N/OCc2ncc[nH]2)c(F)c(F)c1Nc1ccc(I)cc1F [Compound 28, (E)-3,4-difluoro-2-(2-fluoro-4-iodo-phenylamino)-N-(2-hydroxy-ethoxy)-5-[(1H-imidazol-2-ylmethoxyimino)-methyl]-benzamide] | 50 | > 6 | < 31.3 | 20 | > 6 | 
CNC(=O)CO/N=C/c1cc(C(=O)NOCCO)c(Nc2ccc(I)cc2F)c(F)c1F [Compound 43, (E)-3,4-difluoro-2-(2-fluoro-4-iodo-phenylamino)-N-(2-hydroxy-ethoxy)-5-[methylcarbamoylmethoxyimino-methyl]-benzamide] | 77 | > 6 | 57 (≈ 32.3 µg/mL) | 119 | > 6 | 
O=C(CO/N=C\c1cc(C(=O)NOCCO)c(Nc2ccc(I)cc2F)c(F)c1F)NCCO [Compound 57, (Z)-3,4-Difluoro-2-(2-fluoro-4-iodo-phenylamino)-N-(2-hydroxy-ethoxy)-5-{[(2-hydroxyethylcarbamoyl)-methoxyimino]-methyl}-benzamide] | 27 | > 6 | 224 (≈ 134 µg/mL) | 19 | > 6 | 
CNC(=O)CO/N=C\c1cc(C(=O)NOCCO)c(Nc2ccc(I)cc2F)c(F)c1F [Compound 56, (Z)-3,4-Difluoro-2-(2-fluoro-4-iodo-phenylamino)-N-(2-hydroxy-ethoxy)-5-(methylcarbamoylmethoxyimino-methyl)-benzamide] | 3.4 | > 6 | 85 (≈ 48.1 µg/mL) | 49 | 0.645 | 
CNC(=O)CCCO/N=C\c1cc(C(=O)NOCCO)c(Nc2ccc(I)cc2F)c(F)c1F [Compound 55] | 4.6 | 1.62 | 12 (≈ 7.13 µg/mL) | 37 | > 6 | 
O=C(NOCC(O)CO)c1cc(/C=N\OCCO)c(F)c(F)c1Nc1ccc(I)cc1F (racemic) [Compound 58, dl-(Z)—N-(2,3-dihydroxy-propoxy)-3,4-difluoro-2-(2-fluoro-4-iodo-phenylamino)-5-[(2-hydroxy-ethoxyimino)-methyl]-benzamide] | 37 | 0.91 | 127 (≈ 72.3 µg/mL) | 27 | 0.79 | 
O=C(NOCCO)c1cc(/C=N/OCCN2CCNC2=O)c(F)c(F)c1Nc1ccc(I)cc1F [Compound 27, (E)-3,4-difluoro-2-(2-fluoro-4-iodo-phenylamino)-N-(2-hydroxy-ethoxy)-5-{[2-(2-oxo-imidazolidin-1-yl)-ethoxyimino]-methyl}-benzamide] | 69 | 2.41 | 10 (≈ 6.07 µg/mL) | 203 | > 6 | 
O=C(NOCCO)c1cc(/C=N/O)c(F)c(F)c1Nc1ccc(I)cc1F [Compound 3, (E)-3,4-difluoro-2-(2-fluoro-4-iodo-phenylamino)-N-(2-hydroxy-ethoxy)-5-(hydroxyiminomethyl)-benzamide] | 65 | 1.55 | 6.4 (≈ 3.17 µg/mL) | 78 | 0.97 | 
C#Cc1ccc(Nc2c(C(=O)NOCCO)cc(/C=N/OCCC(=O)NC)c(F)c2F)c(F)c1 [Compound 41, (E)-2-(4-ethynyl-2-fluoro-phenylamino)-3,4-difluoro-N-(2-hydroxy-ethoxy)-5-[(2-methylcarbamoyl-ethoxyimino)-methyl]-benzamide] | 186 | > 6 | 347 (≈ 166 µg/mL) | 64.7 | 3.54 | 
O=C(NOCCO)c1cc(/C=N/OCCN2CCCC2)c(F)c(F)c1Nc1ccc(I)cc1F [Compound 21, (E)-3,4-difluoro-2-(2-fluoro-4-iodo-phenylamino)-N-(2-hydroxy-ethoxy)-5-[(2-pyrrolidin-1-yl-ethoxyimino)-methyl]-benzamide] | 651 | > 6 | 1480 (≈ 879 µg/mL) | 802 | > 6 | 
CC(=O)NCCO/N=C/c1cc(C(=O)NOCCO)c(Nc2ccc(I)cc2F)c(F)c1F [Compound 24, (E)-5-[(2-acetylamino-ethoxyimino)-methyl]-3,4-difluoro-2-(2-fluoro-4-iodo-phenylamino)-N-(2-hydroxy-ethoxy)-benzamide] | 86 | > 6 |  | 48 | > 6 | 16
CN(C)C(=O)CCO/N=C/c1cc(C(=O)NOCCO)c(Nc2ccc(I)cc2F)c(F)c1F [Compound 42, (E)-3,4-difluoro-2-(2-fluoro-4-iodo-phenylamino)-N-(2-hydroxy-ethoxy)-5-[dimethylcarbamoylethoxyimino-methyl]-benzamide] | 91 | 1.74 | 29 (≈ 17.2 µg/mL) | 56 | > 6 | 
CC(=O)NCCO/N=C\c1cc(C(=O)NOCCO)c(Nc2ccc(I)cc2F)c(F)c1F [Compound 54, (Z)-5-[(2-Acetylamino-ethoxyimino)-methyl]-3,4-difluoro-2-(2-fluoro-4-iodo-phenylamino)-N-(2-hydroxy-ethoxy)-benzamide] | 6.5 | > 6 | 20 (≈ 11.6 µg/mL) | 21 | > 6 | 
O=C(NOCCO)c1cc(/C=N/OCCO)c(F)c(F)c1Nc1ccc(I)cc1F [Compound 1, (E)-3,4-difluoro-2-(2-fluoro-4-iodo-phenylamino)-N-(2-hydroxy-ethoxy)-5-[(2-hydroxy-ethoxyimino)-methyl]-benzamide] | 80 | 1.08 |  | 100 | 3.94 | 8.3
CC(O)CO/N=C/c1cc(C(=O)NOCCO)c(Nc2ccc(I)cc2F)c(F)c1F (stereo not drawn) [Compound 15, (E)-3,4-difluoro-2-(2-fluoro-4-iodo-phenylamino)-N-(2-hydroxy-ethoxy)-5-[(2-hydroxy-propoxyimino)-methyl]-benzamide] | 137 | 2.67 | 8 (≈ 4.43 µg/mL) | 110 | 0.978 | 
O=C(NOCCO)c1cc(/C=N/OCCN2CCC(O)CC2)c(F)c(F)c1Nc1ccc(I)cc1F [Compound 19, (E)-3,4-difluoro-2-(2-fluoro-4-iodo-phenylamino)-N-(2-hydroxy-ethoxy)-5-{[2-(4-hydroxy-piperidin-1-yl)-ethoxyimino]-methyl}-benzamide] | 750 | > 6 | 2910 (≈ 1810 µg/mL) | 693 | > 6 | 
CS(=O)(=O)NCCO/N=C/c1cc(C(=O)NOCCO)c(Nc2ccc(I)cc2F)c(F)c1F [Compound 47, (E)-3,4-difluoro-2-(2-fluoro-4-iodo-phenylamino)-N-(2-hydroxy-ethoxy)-5-[(2-methanesulfonylamino-ethoxyimino)-methyl]-benzamide] | 138 | > 6 | 11 (≈ 6.78 µg/mL) | 209 | > 6 | 
